The results in this text go back to patent US12540141B2, “Spiropyrrolidine derived antiviral agents” (priority 2020, dated 2026).

In this experiment the target is SARS-CoV-2 3CL-protease (Severe acute respiratory syndrome coronavirus 2, UniProt P0DTD1). The experiment can be described thus: SARS-CoV-2 3C-Like (3CL) Protease Fluorescence Assay (FRET). It is filed as biochemical. The note with it: SARS-CoV-2 3CL-protease 10 nM, 30 min preincubation at RT, substrate 40 μM.

In turn, `CN(C(=O)C(F)(F)c1cccnc1)[C@@H](CC(C)(C)F)C(=O)N1C[C@]2(C[C@H]1C#N)C(=O)Nc1ccc(Cl)cc12` [Example 482] yielded an IC50 of under 100 nM. For the compound `CN(C(=O)Cc1ccccn1)[C@@H](CC(C)(C)F)C(=O)N1C[C@]2(C[C@H]1C#N)C(=O)Nc1ccc(Cl)cc12` [Example 483], the 50% inhibitory concentration (IC50) was under 100 nM. The figure for `CN(C(=O)Cc1cnccn1)[C@@H](CC(C)(C)F)C(=O)N1C[C@]2(C[C@H]1C#N)C(=O)Nc1ccc(Cl)cc12` [Example 484] is under 100 nM; for `CN(C(=O)Cc1cccc(C(F)(F)F)n1)[C@@H](CC(C)(C)F)C(=O)N1C[C@]2(C[C@H]1C#N)C(=O)Nc1ccc(Cl)cc12` [Example 485] it is 100 to 1000 nM. As for `Cc1cccc(C(F)(F)C(=O)N(C)[C@@H](CC(C)(C)F)C(=O)N2C[C@]3(C[C@H]2C#N)C(=O)Nc2ccc(Cl)cc23)n1` [Example 486], the IC50 is under 100 nM. `Cc1cccc(CC(=O)N(C)[C@@H](CC(C)(C)F)C(=O)N2C[C@]3(C[C@H]2C#N)C(=O)Nc2ccc(Cl)cc23)n1` [Example 487] registered an IC50 of under 100 nM. Regarding `CC(C)C[C@@H](C(=O)N1C[C@]2(C[C@H]1C#N)C(=O)Nc1ccccc12)N(C)C(=O)c1cc2cc(C(F)(F)F)cnc2[nH]1` [Example 488], the half-inhibitory concentration (IC50) was under 100 nM. In turn, `CC(C)C[C@@H](C(=O)N1C[C@]2(C[C@H]1C#N)C(=O)Nc1ccccc12)N(C)C(=O)c1cc2cncnc2[nH]1` [Example 489] had an IC50 of under 100 nM. The compound `CC(C)C[C@@H](C(=O)N1C[C@]2(C[C@H]1C#N)C(=O)Nc1ccccc12)N(C)C(=O)c1cc2nccnc2[nH]1` [Example 490] returned an IC50 of under 100 nM. The figure for `CC(C)C[C@@H](C(=O)N1C[C@]2(C[C@H]1C#N)C(=O)Nc1ccccc12)N(C)C(=O)c1cc2ccc(C(C)C)nc2[nH]1` [Example 491] is under 100 nM. `N#C[C@@H]1C[C@@]2(CN1C(=O)[C@H](CC1CC1)NC(=O)OCc1c(F)cccc1F)C(=O)Nc1ccc(Cl)cc12` [Example 492, 2,6-difluorobenzyl ((S)-1-((3R,5′S)-5-chloro-5′-cyano-2-oxospiro[indoline-3,3′-pyrrolidin]-1′-yl)-3-cyclopropyl-1-oxopropan-2-yl)carbamate] had a half-maximal inhibitory concentration (IC50) of under 100 nM. The figure for `N#C[C@@H]1C[C@@]2(CN1C(=O)[C@H](CC1CC1)NC(=O)OCc1ccc(F)cc1F)C(=O)Nc1ccc(Cl)cc12` [Example 493] is under 100 nM; for `C[C@@H](OC(=O)N[C@@H](CC(C)(C)C)C(=O)N1C[C@]2(C[C@H]1C#N)C(=O)Nc1ccc(Cl)cc12)c1ccc(F)cc1` [Example 495] it is under 100 nM. The figure for `CC(C)(C)C[C@H](NC(=O)OC(C)(C)c1ccc(F)cc1)C(=O)N1C[C@]2(C[C@H]1C#N)C(=O)Nc1ccc(Cl)cc12` [Example 496] is over 1000 nM; for `CC(C)C[C@@H](C(=O)N1C[C@]2(C[C@H]1C(=O)O)C(=O)Nc1ccc(Cl)cc12)N(C)C(=O)c1cc2c(F)cc(F)cc2[nH]1` [Example 497, (3R,5′S)-5-chloro-1′-(N-(4,6-difluoro-1H-indole-2-carbonyl)-N-methyl-L-leucyl)-2-oxospiro[indoline-3,3′-pyrrolidine]-5′-carboxylic acid] it is over 1000 nM.

For `C=C(C)c1ccc2c(c1)[C@@]1(C[C@@H](C#N)N(C(=O)[C@H](CC(C)C)N(C)C(=O)c3cc4c(F)cc(F)cc4[nH]3)C1)C(=O)N2` [Example 498, N—((S)-1-((3R,5′S)-5′-cyano-2-oxo-5-(prop-1-en-2-yl)spiro[indoline-3,3′-pyrrolidin]-1′-yl)-4-methyl-1-oxopentan-2-yl)-4,6-difluoro-N-methyl-1H-indole-2-carboxamide], the concentration for half-maximal inhibition (IC50) was under 100 nM.

The compound `CC(=O)c1ccc2c(c1)[C@@]1(C[C@@H](C#N)N(C(=O)[C@H](CC(C)C)N(C)C(=O)c3cc4c(F)cc(F)cc4[nH]3)C1)C(=O)N2` [Example 499] came in with a 50% inhibitory concentration (IC50) of under 100 nM. Consider `CC(C)C[C@@H](C(=O)N1C[C@]2(C[C@H]1C#N)C(=O)Nc1ccc(S(C)(=O)=O)cc12)N(C)C(=O)c1cc2c(F)cc(F)cc2[nH]1` [Example 500, N—((S)-1-((3R,5′S)-5′-cyano-5-(methylsulfonyl)-2-oxospiro[indoline-3,3′-pyrrolidin]-1′-yl)-4-methyl-1-oxopentan-2-yl)-4,6-difluoro-N-methyl-1H-indole-2-carboxamide], for which the half-inhibitory concentration (IC50) is under 100 nM. `COC(=O)c1ccc2c(c1)[C@@]1(C[C@@H](C#N)N(C(=O)[C@H](CC(C)C)N(C)C(=O)c3cc4c(F)cc(F)cc4[nH]3)C1)C(=O)N2` [Example 501, methyl (3R,5′S)-5′-cyano-1′-(N-(4,6-difluoro-1H-indole-2-carbonyl)-N-methyl-L-leucyl)-2-oxospiro[indoline-3,3′-pyrrolidine]-5-carboxylate] displayed an IC50 of under 100 nM.

Turning to `CC(C)C[C@@H](C(=O)N1C[C@]2(C[C@H]1C#N)C(=O)Nc1ccc(C(=O)N3CCOCC3)cc12)N(C)C(=O)c1cc2c(F)cc(F)cc2[nH]1` [Example 502, N—((S)-1-((3R,5′S)-5′-cyano-5-(morpholine-4-carbonyl)-2-oxospiro[indoline-3,3′-pyrrolidin]-1′-yl)-4-methyl-1-oxopentan-2-yl)-4,6-difluoro-N-methyl-1H-indole-2-carboxamide], the IC50 was under 100 nM. The compound `CC(C)C[C@@H](C(=O)N1C[C@]2(C[C@H]1C#N)C(=O)Nc1ccc(N=[N+]=[N-])cc12)N(C)C(=O)c1cc2c(F)cc(F)cc2[nH]1` [Example 503, N—((S)-1-((3R,5′S)-5-azido-5′-cyano-2-oxospiro[indoline-3,3′-pyrrolidin]-1′-yl)-4-methyl-1-oxopentan-2-yl)-4,6-difluoro-N-methyl-1H-indole-2-carboxamide] displayed a half-inhibitory concentration (IC50) of under 100 nM. The compound `CC(C)C[C@@H](C(=O)N1C[C@]2(C[C@H]1C#N)C(=O)Nc1ccc(NC(=O)C3(F)CC3)cc12)N(C)C(=O)c1cc2c(F)cc(F)cc2[nH]1` [Example 504, N—((S)-1-((3R,5′S)-5′-cyano-5-(1-fluorocyclopropane-1-carboxamido)-2-oxospiro[indoline-3,3′-pyrrolidin]-1′-yl)-4-methyl-1-oxopentan-2-yl)-4,6-difluoro-N-methyl-1H-indole-2-carboxamide] gave an IC50 of under 100 nM. The figure for `CC(C)C[C@@H](C(=O)N1C[C@]2(C[C@H]1C#N)C(=O)Nc1ccc(-n3cc(C4CC4)nn3)cc12)N(C)C(=O)c1cc2c(F)cc(F)cc2[nH]1` [Example 505, N—((S)-1-((3R,5′S)-5′-cyano-5-(4-cyclopropyl-1H-1,2,3-triazol-1-yl)-2-oxospiro[indoline-3,3′-pyrrolidin]-1′-yl)-4-methyl-1-oxopentan-2-yl)-4,6-difluoro-N-methyl-1H-indole-2-carboxamide] is under 100 nM; for `CC(C)C[C@@H](C(=O)N1C[C@]2(C[C@H]1C#N)C(=O)Nc1ccc(-c3cccnc3)cc12)N(C)C(=O)c1cc2c(F)cc(F)cc2[nH]1` [Example 506] it is under 100 nM. The figure for `CC(C)C[C@@H](C(=O)N1C[C@]2(C[C@H]1C#N)C(=O)Nc1ccc(-c3cn(-c4ccccn4)nn3)cc12)N(C)C(=O)c1cc2c(F)cc(F)cc2[nH]1` [Example 507] is under 100 nM; for `CC(C)C[C@@H](C(=O)N1C[C@]2(C[C@H]1C#N)C(=O)Nc1ccc(Br)cc12)N(C)C(=O)c1cc2c(F)cc(F)cc2[nH]1` [Example 508] it is under 100 nM; for `CC(C)C[C@@H](C(=O)N1C[C@]2(C[C@H]1C#N)C(=O)Nc1ccc(C#C[Si](C)(C)C)cc12)N(C)C(=O)c1cc2c(F)cc(F)cc2[nH]1` [Example 509] it is under 100 nM. `CC(C)C[C@@H](C(=O)N1C[C@]2(C[C@H]1C#N)C(=O)Nc1ccc(-c3ccncc3)cc12)N(C)C(=O)c1cc2c(F)cc(F)cc2[nH]1` [Example 510] registered a 50% inhibitory concentration (IC50) of under 100 nM.

On to `CC(C)C[C@@H](C(=O)N1C[C@]2(C[C@H]1C#N)C(=O)Nc1ccc(-c3ccc(F)cc3)cc12)N(C)C(=O)c1cc2c(F)cc(F)cc2[nH]1` [Example 511], for which the half-maximal inhibitory concentration (IC50) was under 100 nM. In the case of `CC(C)C[C@@H](C(=O)N1C[C@]2(C[C@H]1C#N)C(=O)Nc1ccc(-c3ccoc3)cc12)N(C)C(=O)c1cc2c(F)cc(F)cc2[nH]1` [Example 512] it was under 100 nM; in that of `CC(C)C[C@@H](C(=O)N1C[C@]2(C[C@H]1C#N)C(=O)Nc1ccc(-c3ccsc3)cc12)N(C)C(=O)c1cc2c(F)cc(F)cc2[nH]1` [Example 513], under 100 nM; in that of `CC(C)C[C@@H](C(=O)N1C[C@]2(C[C@H]1C#N)C(=O)Nc1ccc(-c3ccn(C(F)F)n3)cc12)N(C)C(=O)c1cc2c(F)cc(F)cc2[nH]1` [Example 514], under 100 nM. In the case of `CC(C)C[C@@H](C(=O)N1C[C@]2(C[C@H]1C#N)C(=O)Nc1ccc(-c3cnoc3)cc12)N(C)C(=O)c1cc2c(F)cc(F)cc2[nH]1` [Example 515], the IC50 was under 100 nM.

`CC(C)C[C@@H](C(=O)N1C[C@]2(C[C@H]1C#N)C(=O)Nc1ccc(-c3ccccn3)cc12)N(C)C(=O)c1cc2c(F)cc(F)cc2[nH]1` [Example 516] registered a half-inhibitory concentration (IC50) of under 100 nM. `CC(C)C[C@@H](C(=O)N1C[C@]2(C[C@H]1C#N)C(=O)Nc1ccc(Br)cc12)N(C)C(=O)OCc1ccccc1` [Example 517, benzyl ((S)-1-((3R,5′S)-5-bromo-5′-cyano-2-oxospiro[indoline-3,3′-pyrrolidin]-1′-yl)-4-methyl-1-oxopentan-2-yl)(methyl)carbamate] showed an IC50 of under 100 nM. The figure for `Cc1ccc2c(c1)[C@@]1(C[C@@H](C#N)N(C(=O)[C@H](CC(C)C)N(C)C(=O)OCc3ccccc3)C1)C(=O)N2` [Example 518, benzyl ((S)-1-((3R,5′S)-5′-cyano-5-methyl-2-oxospiro[indoline-3,3′-pyrrolidin]-1′-yl)-4-methyl-1-oxopentan-2-yl)(methyl)carbamate] is under 100 nM. Consider `Cc1c(C(=O)N[C@@H](CC2CC2)C(=O)N2C[C@]3(C[C@H]2C#N)C(=O)Nc2ccc(Cl)cc23)sc2cccc(F)c12` [Example 519, N—((S)-1-((3R,5′S)-5-chloro-5′-cyano-2-oxospiro[indoline-3,3′-pyrrolidin]-1′-yl)-3-cyclopropyl-1-oxopropan-2-yl)-4-fluoro-3-methylbenzo[b]thiophene-2-carboxamide], for which the IC50 was under 100 nM.
